From patent US20140005070A1, “MARKERS ASSOCIATED WITH CYCLIN-DEPENDENT KINASE INHIBITORS” (Novartis AG, priority 2011, published 2014)
“Also recorded” adds a separate entry of the source. Starred links: 1 amine or outer side, 2 acyl side, 3 side chain; linkers in the order of their positions; H or OH if unused. Positions of bridges follow the written chain, without caps; N, C: chain ends. Non-standard residues stand in square brackets, D forms with d. Residues, ends and D or L forms follow the SMILES beside them. Chains are numbered I, II in the order given. Actinocin(9to1) = Cc1c2oc3c(C)ccc(C(=O)[*:1])c3nc-2c(C(=O)[*:2])c(N)c1=O; NMeV = CN[C@H](C(=O)O)C(C)C; Sar = CNCC(=O)O

Assays:
MEPCE [1] = assay: MEPCE expression after treatment with CDK9 / transcription elongation inhibitors (FIG. 3); format: cell-based
MCL1 protein = assay: Western blot of anti-apoptotic and pro-apoptotic family members (FIG. 5); format: cell-based; conditions: lung cancer cell line
Description: After treatment with a CDKI, cells were lysed in modified RIPA buffer containing 50 mM TRIS pH 7.4, 150 mM NaCl, 1 mM EDTA, 1% Brij-35, 0.1% deoxycholate, protease inhibitors (Roche Molecular Biochemicals, Mannheim, Germany). SDS-PAGE (4-12% gel) was used to resolve the proteins in the lysate. After electrophoresis, the proteins were electrotransferred onto a polyvinylidene fluoride microporous membrane and immunodetected using standard procedures. FIG. 4 is a Western blot of the multiple myeloma line NCI-H929, treated with CDKI(7) or DMSO and gene expression analyzed at certain time points during the treatment. […] Thus, the reduction in expression of genes in response to CDKI seen at the mRNA level by microarray is confirmed at the protein level by Western blotting.
FIG. 5 is a Western blot comparing the reduction of expression of anti-apoptotic and pro-apoptotic family members after treatment with CDKI(8).

MYC = assay: Dog toxicology study, TaqMan mRNA in white blood cells after CDKI(12): MYC; format: in vivo; conditions: any of the tested doses (0.1, 0.15 mg/kg), FIG. 10
Description: (§1) As part of a dog toxicology study, the pharmacodynamic markers MEPCE, MYC and MCL1 were measured by TaqMan® in white blood cells at various time points after CDKI(12) treatment.
(§2) The study had three groups of three dogs each. Dogs in Group 1 (#1001, #1002, and #1003) were treated with vehicle, dogs in Group 3 (#3001, #3002, and #3003) were treated with CDKI(12) at 0.1 mg/kg and dogs in Group 5 (#5001, #5002, and #5003) were treated with CDKI(12) at 0.15 mg/kg. Samples were collected before treatment 0 hour timepoint; 4 hours, 8 hours and 24 hours after treatment, for a total of 12 samples per group. Blood samples were received frozen in QIAGEN RNAprotect® Animal Blood tubes (Cat. #76554). RNA samples were extracted using the QIAGEN RNeasy® Protect Animal Blood kit (Cat. #73224). RNA samples were quantified using the RNA Quant-iT RNA assay® from Invitrogen (Cat. #Q32852) and read on an Invitrogen Qubit fluorometer (Cat. #Q32857). […] The relative quantification method was used to analyze the data; this method uses one sample as a calibrator sample and express mRNA levels relative to that sample. The results are expressed as RQ values (Relative Quantification) with RQ Min and RQ Max values determining a 95% confidence interval for the RQ value. The samples were grouped according to treatment and time point and data from three dogs, each measured in triplicate, were averaged. […]

MEPCE [2] = assay: Dog toxicology study, TaqMan mRNA in white blood cells after CDKI(12): MEPCE; format: in vivo
Description: as §1
The study had three groups of three dogs each. Dogs in Group 1 (#1001, #1002, and #1003) were treated with vehicle, dogs in Group 3 (#3001, #3002, and #3003) were treated with CDKI(12) at 0.1 mg/kg and dogs in Group 5 (#5001, #5002, and #5003) were treated with CDKI(12) at 0.15 mg/kg. Samples were collected before treatment 0 hour timepoint; 4 hours, 8 hours and 24 hours after treatment, for a total of 12 samples per group. Blood samples were received frozen in QIAGEN RNAprotect® Animal Blood tubes (Cat. #76554). RNA samples were extracted using the QIAGEN RNeasy® Protect Animal Blood kit (Cat. #73224). RNA samples were quantified using the RNA Quant-iT RNA assay® from Invitrogen (Cat. #Q32852) and read on an Invitrogen Qubit fluorometer (Cat. #Q32857). First strand cDNA synthesis was performed on 500 ng of RNA in a reaction volume of 20 μl using a High Capacity cDNA Reverse Transcription Kit from Applied Biosystems (Cat. #4368814). The cDNA samples were then diluted to 2 ng/μl (10 ng in 5 μl in each reaction). Each TaqMan® reaction contained: 5 μl of cDNA, 1.25 μl of each probe (18S rRNA and gene of interest), 5 μl of water and 12.5 μl of TaqMan® Gene Expression Master Mix from Applied Biosystems (Cat. #4369016) for a total volume of 25 μl. TaqMan® reactions were run in triplicates on an ABI 7500® machine. The 18S rRNA level was used as an endogenous control to correct for variations in cDNA input. The relative quantification method was used to analyze the data; this method uses one sample as a calibrator sample and express mRNA levels relative to that sample. The results are expressed as RQ values (Relative Quantification) with RQ Min and RQ Max values determining a 95% confidence interval for the RQ value. The samples were grouped according to treatment and time point and data from three dogs, each measured in triplicate, were averaged. The vehicle group at 0 hour timepoint was used as the calibrator sample thus allowing us to measure changes in mRNA levels in response to the test article at various time points. The logarithm of the RQ values are plotted so that increases or decreases from the initial value can be more easily represented; on a logarithmic scale a 10-fold increase or 10-fold decrease in RQ value are represented as +1 and −1 respectively.
We have previously shown that the MEPCE mRNA is particularly sensitive to CDK9 inhibition and any CDKI (see Examples above). […] The mRNA levels were determined by TaqMan® using the relative quantification method. The calibrator sample is vehicle at 0 hour timepoint. […]

MCL1 = assay: Dog toxicology study, TaqMan mRNA in white blood cells after CDKI(12): MCL1; format: in vivo; conditions: any of the tested doses (0.1, 0.15 mg/kg), two probes, FIG. 11
Description: as §1, §2

SMILES	MEPCE expression (MEPCE [1])	expression of MCL1 protein (MCL1 protein; 2 hours after treatment)	expression of MCL1 protein (MCL1 protein; after 16 hour exposure)	MYC mRNA regulation (MYC)	MEPCE mRNA regulation (MEPCE [2]; 0.1 mg/kg, FIG. 9, 0.1 mg/kg)	MEPCE mRNA level at 4 and 8 hours (MEPCE [2]; 0.15 mg/kg, 4 and 8 hours)	MEPCE mRNA level by 24 hours (MEPCE [2]; 0.15 mg/kg, 24 hours)	MEPCE mRNA regulation (MEPCE [2]; 0.15 mg/kg, FIG. 9)	MCL1 mRNA regulation (MCL1)
Cc1c2oc3c(C)ccc(C(=O)N[C@@H]4C(=O)N[C@H](C(C)C)C(=O)N5CCC[C@H]5C(=O)N(C)CC(=O)N(C)[C@@H](C(C)C)C(=O)O[C@@H]4C)c3nc-2c(C(=O)N[C@@H]2C(=O)N[C@H](C(C)C)C(=O)N3CCC[C@H]3C(=O)N(C)CC(=O)N(C)[C@@H](C(C)C)C(=O)O[C@@H]2C)c(N)c1=O [Actinomycin D, reference compound] (I: T[dV]P[Sar][NMeV] / II: T[dV]P[Sar][NMeV]; ester I:1-I:C, II:1-II:C; linker I:N-II:N via Actinocin(9to1))	reduces the expression of MEPCE	–	–	–	–	–	–	–	–
N[C@H]1CC[C@H](Nc2cc(-c3cccc(NCc4cccc(F)c4)n3)c(Cl)cn2)CC1 [CDKI(8)]	reduced	reduced	further reduced	–	–	–	–	–	–
COC[C@@H](C)N[C@H]1CC[C@H](Nc2cc(-c3cccc(NCC4(C#N)CCOCC4)n3)c(Cl)cn2)CC1 [CDKI(12)]	–	–	–	does not show any significant down regulation; also recorded: not significantly down regulated	less down regulation; also recorded: clear down regulation	reduced	returns to pretreatment levels	clear down regulation	does not show any significant down regulation; also recorded: not significantly down regulated
